Tested on: cellules HL-60
Details: hydroxyurée alone, 150 uM

## NC(=O)NO [hydroxyurée]
  inhibition de la croissance des cellules HL-60: inhibition suffisante de la croissance des cellules HL-60

— patent EP0336958B1, “PRODUCT CONTAINING AS ACTIVE PRINCIPLES: A) A PEPTIDE HAVING AN ACTIVITY OF THE TYPE OF THAT OF HUMAN GAMMA INTERFERON, B) HYDROXYUREA” (priority 1987, dated 1989)
